Counter-ions that a name gives are not always drawn. Like-named read-outs stand apart in the source and are kept apart here.
Columns and labels:
Assay type in all cases: cell-based
[1] = system: Bacillus anthracis, Sterne 34F2; assay: microbe, parasite or virus in culture; conditions: STERNE34F2, read-out: MIC B.a.
[2] = system: Bacillus subtilis (ATCC 23857); assay: MIC determination, microbroth dilution; conditions: ATCC23857; Bacillus subtilis (ATCC 23857); read-out: MIC B.s.
[3] = system: Staphylococcus aureus (ATCC 29213); assay: MIC determination, microbroth dilution; conditions: ATCC29213; Staphylococcus aureus (ATCC 29213); read-out: MIC S.a.
[4] = system: MRSA, Staphylococcus aureus (NRS70); assay: MIC determination, microbroth dilution; conditions: Staphylococcus aureus (NRS70); read-out: MIC MRSA
[5] = system: Streptococcus pneumoniae (R6); assay: MIC determination, microbroth dilution; conditions: Streptococcus pneumoniae (R6); read-out: MIC S. pn.
[6] = system: Streptococcus pyogenes (ATCC 700294); assay: MIC determination, microbroth dilution; conditions: ATCC700294; Streptococcus pyogenes (ATCC 700294); read-out: MIC S. py.
[7] = system: acinetobacter baumannii (ATCC 19606); assay: MIC determination, microbroth dilution; conditions: ATCC19606
[8] = system: Burkholderia cepacia (ATCC 25416); assay: MIC determination, microbroth dilution; conditions: Burkholderia cepacia
[9] = system: Escherichia coli (ATCC 700926); assay: MIC determination, microbroth dilution; conditions: ATCC700926; Escherichia coli (ATCC 700926); read-out: MIC E.c.
Method: MICs were determined using the microbroth dilution method according to Clinical Laboratory Standards Institute (CLSI; National, C. F. C. L. S., Methods for Dilution Antimicrobial Susceptibility Tests for Bacteria Grow aerobically-Seventh Edition: Approved Standard M7-A7, CLSI, Wayne, Pa., USA, 2008) and were read by visual inspection. Two fold serial dilutions of antibiotic in 100 μL of the appropriate broth media were first prepared in 96-well round bottom microtiter plates (Nalge Nunc International, Rochester, N.Y., USA). An equivalent volume (100 μL) of bacterial broth inocula containing approximately 10^5 bacterial cfu/mL was added to each well to give final concentrations of drug starting at 200 μg/mL and the plates were incubated aerobically at 37° C. M. tuberculosis microtiter plates were incubated for 7 days and all other strains were incubated overnight. After incubations, in all cases the MIC was recorded as the lowest concentration of drug that prevented bacterial growth.

[10] = system: E. coli K12 ΔtolC; assay: microbe, parasite or virus in culture; conditions: Escherichia coli, read-out: MIC E.c. Δtolc
[11] = system: Klebsiella pneumoniae (ATCC 33495); assay: MIC determination, microbroth dilution; conditions: ATCC33495
[12] = system: Pseudomonas aeruginosa (PA01); assay: MIC determination, microbroth dilution
[13] = system: Proteus mirabilis (ATCC 25933); assay: MIC determination, microbroth dilution; conditions: ATCC25933
[14] = system: Proteus vulgaris (ATCC 33420); assay: MIC determination, microbroth dilution; conditions: ATCC33420
[15] = system: Stenotrophomonas maltophilia (ATCC 13637); assay: MIC determination, microbroth dilution; conditions: ATCC13637; Stenotrophomonas maltophilia (ATCC 13637); read-out: MIC S.m.
[16] = system: Haemophilus influenza (ATCC 49247); assay: microbe, parasite or virus in culture; conditions: ATCC49247; Haemophilus influenza; 4 μg per disc; range of at least two experiments; read-out: Zone of inhibition H.i.
[17] = system: Legionella pneumophila (ATCC 33153); assay: microbe, parasite or virus in culture; conditions: ATCC33153, 72 h, read-out: Zone of inhibition L.p.
[18] = system: Neisseria meningitides (ATCC 13077); assay: Disc diffusion assay; conditions: ATCC13077, 4 μg per disc, read-out: Zone of inhibition N.m.
[19] = system: Neisseria gonorrhoeae (ATCC 49226); assay: Disc diffusion assay; conditions: ATCC49226, 4 μg per disc, read-out: Zone of inhibition N.g.
[20] = system: Bacillus anthracis; assay: microbe, parasite or virus in culture; conditions: read-out: MIC B.a.
[21] = system: M. tuberculosis clinical isolates; assay: microbe, parasite or virus in culture; conditions: Mycobacterium tuberculosis
[22] = system: Listeria monocytogenes; assay: MIC determination (Table 6)
[23] = system: Moraxella catarrhalis; assay: MIC determination (Table 6)
[24] = system: Enterococcus faecalis (ATCC 33186); assay: MIC determination, microbroth dilution; conditions: ATCC33186; Enterococcus faecalis (ATCC 33186); read-out: MIC E.f.
[25] = ATCC25416, read-out: MIC B.c., Burkholderia cepacia (ATCC 25416)
[26] = ATCC25416, read-out: MIC B.c., Burkholderia cepacia, Table 6

Compound | MIC [1] [µg/mL] | MIC [2] [µg/mL] | MIC [3] [µg/mL] | MIC [4] [µg/mL] | MIC [5] [µg/mL] | MIC [6] [µg/mL] | MIC [7] [µg/mL] | MIC [8, 25] [µg/mL] | MIC [8, 26] [µg/mL] | MIC [9] [µg/mL] | MIC [10] [µg/mL] | MIC [11] [µg/mL] | MIC [12] [µg/mL] | MIC [13] [µg/mL] | MIC [14] [µg/mL] | MIC [15] [µg/mL] | zone of inhibition at 4 µg/disc [16] [mm] | zone of inhibition at 4 µg/disc [17] [mm] | zone of inhibition at 4 µg/disc [18] [mm] | zone of inhibition at 4 µg/disc [19] [mm] | also measured
CN[C@@H]1[C@H](O)[C@H](NC)[C@H]2O[C@]3(O)[C@H](O[C@@H]2[C@H]1O)O[C@H](C)C[C@@]3(O)CNCCC1CCOCC1 [compound 52, 3′-(R)-3′-[(2-(tetrahydro-2H-pyran-4-yl)ethyl)aminomethyl]dihydrospectinomycin Trihydrochloride] | 50 to 100 | 25 | 200 | > 200 | 25 to 50 | 100 | > 200 | > 200 | > 200 | 50 to 100 | 25 to 50 | 100 | > 200 | 200 | > 200 | 12.5 to 25 | 10 | 32 | 12 | 7 | MIC [20]: 50 to 100 µg/mL; MIC ([21]; H37RV, read-out: MIC H37Rv): 3.1 µg/mL; MIC ([21]; read-out: MIC TN022): 6.3 µg/mL; MIC ([21]; read-out: MIC TN026): 3.1 µg/mL; MIC [22]: 12.5 µg/mL; MIC [23]: 3.1 µg/mL
CN[C@@H]1[C@H](O)[C@H](NC)[C@H]2O[C@]3(O)[C@H](O[C@@H]2[C@H]1O)O[C@H](C)C[C@@]3(O)CNCCc1ccc(Cl)cc1 [compound 54, 3′-(R)-3′-[(4-chloro)phenethylaminomethyl]dihydrospectinomycin Trihydrobromide] | 200 | 25 to 50 | 100 to 200 | > 200 | 25 | 25 | > 200 | > 200 | > 200 | 50 to 100 | 12.5 to 25 | > 200 | > 200 | > 200 | > 200 | ≥ 200 | 9 | 15 | 7 | 11 | MIC [20]: 200 µg/mL; MIC ([21]; H37RV, read-out: MIC H37Rv): 25 µg/mL; MIC ([21]; read-out: MIC TN022): 25 µg/mL; MIC ([21]; read-out: MIC TN026): 50 µg/mL; MIC [22]: 25 µg/mL; MIC [23]: 6.3 µg/mL
CN[C@@H]1[C@H](O)[C@H](NC)[C@H]2O[C@]3(O)[C@H](O[C@@H]2[C@H]1O)O[C@H](C)C[C@]3(O)CNCCc1ccccc1 [compound 27, 3′-(S)-3′-(phenethylaminomethyl)dihydrospectinomycin Trihydrochloride] | > 200 | > 200 | > 200 | > 200 | > 200 | 50 to 100 | ≥ 200 | 200 | > 200 | 50 to 100 | 25 to 50 | > 200 | > 200 | > 200 | > 200 | ≥ 200 | 0 | 0 | 0 | 7 | MIC [24]: > 200 µg/mL; MIC [20]: > 200 µg/mL; MIC ([21]; H37RV, read-out: MIC H37Rv): 200 µg/mL

Source: patent publication US10266544B2, “Aryl substituted aminomethyl spectinomycin analogs as antibacterial agents” (ST. JUDE CHILDREN'S RESEARCH HOSPITAL, INC., priority 2013, dated 2019)
